Earlier results in US20020032188A1, “Compositions and methods for treatment of anal fissure” (priority 2000, published 2002).

Details: topical ISDN

## O=[N+]([O-])O[C@H]1CO[C@H]2[C@@H]1OC[C@H]2O[N+](=O)[O-] [ISDN, isosorbide dinitrate]
  treatment of chronic anal fissure, result reported: effective treatment for chronic anal fissure
